Source: the NIST ThermoML archive (doi:10.1021/je060084c)

How the values were obtained:
[1] = 298.15 K; for mass density: 101.33 kPa, Liquid
[2] = refractive index (Na D-line) (dimensionless); conditions: 298.15 K; 101.33 kPa; Liquid; Standard Abbe refractometry
[3] = xn = mol fraction of the nth substance listed; conditions: 298.15 K; for mass density: 101 kPa, Liquid
[4] = refractive index (Na D-line) (dimensionless); xn = mol fraction of the nth substance listed; conditions: 298.15 K, 101 kPa, Liquid, Standard Abbe refractometry

CC(=O)O [acetic acid]
Conditions	mass density [kg/m3]	refractive index	surface tension liquid-gas [mN/m]
[1]	1043.95	–	27.08
[2]	–	1.36969	–

CC(=O)O [acetic acid] + O
Conditions	mass density, [3] [kg/m3]	refractive index, [4]	surface tension liquid-gas, [3] [mN/m]
x1 = 0.0001	–	–	71.79
x1 = 0.0005	–	–	71.18
x1 = 0.0007	997.41	1.33285	71.04
x1 = 0.0008	–	–	70.84
x1 = 0.0012	997.88	1.33312	70.37
x1 = 0.006	998.92	1.33422	66.17
x1 = 0.0066	–	–	65.76
x1 = 0.0119	1000.78	1.33576	62.57
x1 = 0.0138	–	–	61.57
x1 = 0.0234	–	–	58.26
x1 = 0.0257	1004.39	1.33874	57.45
x1 = 0.0404	–	–	53.14
x1 = 0.0516	1011.91	1.34364	50.64
x1 = 0.0746	–	–	47.25
x1 = 0.1086	–	–	43.43
x1 = 0.1108	1031.57	1.35281	43.39
x1 = 0.1513	1040.9	1.35708	40.12
x1 = 0.1814	1046.55	1.36009	39.24
x1 = 0.2288	1052.46	1.36386	38.17
x1 = 0.3053	1058.74	1.36818	36.5
x1 = 0.4129	1063.49	1.3723	34.8
x1 = 0.516	1064.54	1.37456	33.23
x1 = 0.6068	1063.64	1.37543	31.87
x1 = 0.7035	1061.07	1.37543	30.32
x1 = 0.8067	1057	1.37459	29.32
x1 = 0.9076	1051.89	1.37257	28.42

CCCC(=O)O [butanoic acid]
Conditions	mass density [kg/m3]	refractive index	surface tension liquid-gas [mN/m]
[1]	953.17	–	26.19
[2]	–	1.39599	–

CCCC(=O)O [butanoic acid] + O
Conditions	mass density, [3] [kg/m3]	refractive index, [4]	surface tension liquid-gas, [3] [mN/m]
x1 = 4e-05	997.14	1.33256	71.12
x1 = 0.0001	997.28	1.33259	70.47
x1 = 0.0006	997.35	1.33282	66.32
x1 = 0.0016	997.39	1.33325	60.32
x1 = 0.0028	–	–	55.12
x1 = 0.0056	998.24	1.33514	46.34
x1 = 0.0075	–	–	42.12
x1 = 0.0136	999.83	1.33877	35.88
x1 = 0.0201	1000.84	1.34064	31.94
x1 = 0.0299	1001.79	1.34506	29.24
x1 = 0.048	1001.61	1.35064	28.48
x1 = 0.0596	1000.55	1.35359	28.35
x1 = 0.0865	998.76	1.35959	28.23
x1 = 0.1034	997.68	1.36283	28.15
x1 = 0.2033	992.5	1.37695	27.92
x1 = 0.2997	987.71	1.38524	27.73
x1 = 0.381	983.12	1.38923	27.66
x1 = 0.5038	977.2	1.3933	27.56
x1 = 0.5763	973.62	1.39471	27.42
x1 = 0.7036	967.47	1.39625	27.13
x1 = 0.8019	962.35	1.39667	26.9
x1 = 0.9189	957.18	1.39654	26.51

O=CO [formic acid]
Conditions	mass density [kg/m3]	refractive index	surface tension liquid-gas [mN/m]
[1]	1211.29	–	38.17
[2]	–	1.37459	–

O=CO [formic acid] + O
Conditions	mass density, [3] [kg/m3]	refractive index, [4]	surface tension liquid-gas, [3] [mN/m]
x1 = 0.0007	997.52	1.33265	71.48
x1 = 0.0015	998.02	1.33269	71.14
x1 = 0.0028	998.79	1.33271	70.65
x1 = 0.0067	1001.27	1.33343	69.45
x1 = 0.0106	1003.6	1.3344	68.59
x1 = 0.0154	1006.31	1.33496	67.53
x1 = 0.0277	1013.84	1.33633	65.46
x1 = 0.0442	–	–	63.13
x1 = 0.0538	1026.93	1.33912	–
x1 = 0.0755	–	–	59.92
x1 = 0.1098	1052.76	1.34454	57.29
x1 = 0.1539	1069.49	1.34829	55.23
x1 = 0.204	1086.51	1.35223	52.74
x1 = 0.3004	1114.3	1.35863	49.18
x1 = 0.4178	1141.55	1.36478	47.25
x1 = 0.5101	1158.59	1.36885	45.73
x1 = 0.6133	1174.83	1.3722	43.41
x1 = 0.7058	1187.06	1.37444	41.42
x1 = 0.8162	1198.4	1.37543	40.12
x1 = 0.8967	1204.13	1.37543	39.13

CCC(=O)O [propanoic acid]
Conditions	mass density [kg/m3]	refractive index	surface tension liquid-gas [mN/m]
[1]	988.33	–	26.15
[2]	–	1.38484	–

CCC(=O)O [propanoic acid] + O
Conditions	mass density, [3] [kg/m3]	refractive index, [4]	surface tension liquid-gas, [3] [mN/m]
x1 = 0.0008	997.47	1.33292	68.52
x1 = 0.0016	997.64	1.33304	66.47
x1 = 0.0029	998.15	1.33367	63.66
x1 = 0.0044	998.68	1.33422	60.98
x1 = 0.0064	999.29	1.33485	57.91
x1 = 0.0103	1000.6	1.33606	53.54
x1 = 0.0179	1002.71	1.3385	48.16
x1 = 0.0272	1005.51	1.34145	44.12
x1 = 0.047	1006.86	1.34689	38.89
x1 = 0.0618	1008.97	1.35074	36.93
x1 = 0.0989	1017.17	1.35796	34.71
x1 = 0.2016	1022.07	1.37093	32.25
x1 = 0.3008	1021.51	1.3784	31.12
x1 = 0.4003	1018.87	1.38294	30.19
x1 = 0.5009	1014.33	1.38564	29.36
x1 = 0.6039	1010.12	1.3869	28.56
x1 = 0.702	1005.03	1.38721	27.91
x1 = 0.7666	1002.83	1.38709	27.52
x1 = 0.8784	996.68	1.38599	26.92
